Test systems include SARS-COV-2 BA.1; SARS-COV-2 XBB; SARS-COV-2 BA.2; SARS-COV-2 BA.5; SARS-COV-2 XBB1.5.
Holding throughout (type): cell-based
In assay [1] the test system is original WA1 viral strain of SARS-COV-2. In words: in vitro infectivity of epithelial cells expressing ACE-2 and TMPRSS-2, virus-NP protein in culture media. Conditions: MOI 0.01.

Consider hemin, for which, in the assay on SARS-COV-2 BA.1, the “cellular protection against SARS-COV-2 BA.1 infection” value was “protected cells” and the “inhibition of SARS-COV-2 BA.1 (dose response)” value is listed as “dose-dependent inhibition”. The “replication of SARS-COV-2 XBB” value in the assay on SARS-COV-2 XBB is reported as “significantly suppressed replication”. In addition, the “replication of SARS-COV-2 BA.2” value with SARS-COV-2 BA.2 is listed as “significantly suppressed replication”. In addition, in assay [1], the “SARS-COV-2 infection, original WA1 viral strain” value is recorded as “markedly suppressed”. Further, the “replication of SARS-COV-2 BA.5” value with SARS-COV-2 BA.5 is “significantly suppressed replication”. Moreover, the “replication of SARS-COV-2 XBB1.5” value in the assay on SARS-COV-2 XBB1.5 is listed as “significantly suppressed replication”.

(Values after US12029814B1, “Formulation of ear drops and methods for delivery thereof for treating upper respiratory infections” (priority 2023, dated 2024).)
